Experimental data published in BigSolDB 2.1.

Br.Cc1ccc(Sc2ccccc2N2CCNCC2)c(C)c1
solubility (mole fraction)
Conditions	283.15 K	288.15 K	293.15 K	298.15 K	303.15 K	308.15 K	313.15 K	318.15 K
in 2-butanone	6.2e-05	8.4e-05	0.000136	0.000163	0.00021	0.000267	0.000311	0.000338
in ethanol	0.00123	0.00138	0.0015	0.00162	0.00199	0.00269	0.00297	0.00341
in n-butanol	0.000582	0.000751	0.00086	0.00121	0.0017	0.00202	0.0023	0.00271
in n-propanol	0.000934	0.00101	0.00115	0.00132	0.00178	0.00214	0.00245	0.00295
